Experimental data published in US7491794B2, “Macrocyclic compounds as inhibitors of viral replication” (Intermune, Inc., priority 2003, dated 2009).

Tests used:
[1] = Dog hepatocyte incubation assay (stability in vitro); type: in vitro ADME; conditions: dog hepatocytes
[2] = system: HCV sub-genomic replicon, GS4.3; experiment: Quantitation by ELISA of NPTII in the HCV sub-genomic replicon, GS4.3, Section B; type: cell-based; conditions: Hepatitis C virus; read-out: replicon EC50 value
Outline: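 GS4.3 cells (HuH-7 carrying HCV 1377/NS3-3′ replicon) were treated 72 h at 37 °C with inhibitors in 3-fold dilutions, 1% DMSO, no G418. Lysate NPTII was measured by ELISA (TMB, 450 nm). Signal as % of DMSO control; EC50 from 4-parameter fit.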

hERG channel = hERG channel (Homo sapiens, UniProt Q12809); experiment: Inhibition of hERG channel activity; conditions: highest concentrations tested (10 μM)
Cytochrome P450 isoforms = experiment: Inhibition of Cytochrome P450 isoforms; type: in vitro ADME; conditions: highest concentrations tested (10 μM)
[3] = Rat hepatocyte incubation assay (stability in vitro); type: in vitro ADME; conditions: rat hepatocytes
[4] = Human hepatocyte incubation assay (stability in vitro); type: in vitro ADME; conditions: human hepatocytes
[5] = system: panel of other serine proteases; experiment: Selectivity against a panel of other serine proteases; type: biochemical
[6] = system: HCV sub-genomic replicon, GS4.3; experiment: Quantitation by ELISA of NPTII in the HCV sub-genomic replicon, GS4.3, Section C; type: cell-based; conditions: GS4.3 cells, 72 h incubation, read-out: EC50
NS3-NS4 protease = target: T1, NS3-NS4 protease (Hepatitis C virus genotype 1a, UniProt P27958); experiment: NS3-NS4 protease assay / NS3 inhibition assay, Section C; type: biochemical; conditions: read-out: NS3-NS4 IC50
T1 construct: Recombinant E. coli or Baculovirus full-length NS3 was diluted to 3.33 μM with assay buffer; made in house; host or cells: E. coli or baculovirus (BV) system
Outline: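 Full-length NS3 (E. coli, 2 nM, or Baculovirus, 3 nM, in assay) precomplexed with excess NS4A-2 peptide, pre-incubated with compound 10 minutes at room temperature, then RETS1 substrate added. Fluorescence (ex 335/em 495 nm) read kinetically over 30 minutes; IC50s from four-parameter fit converted to Ki via Ki=IC50/(1+[S]/Km).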

[7] = in vivo, po
Procedure: (§1) Compounds were initially synthesized and tested for potency (IC50) in a fluorogenic NS3/4 protease assay and cell-based HCV replicon system as described in Example 8 above. […] These leads were then further optimized for drug-like physical properties and administered in oral doses in Rattus sp. to assess liver, heart and plasma concentrations.
Compounds were tested for liver clearance over time following a single 3 mg/kg oral dose in rats.
as §1, with “described” for “described in Example 8”

[8] = Toxicological assessment in rats, up to 30 mg/kg orally BID for seven days; conditions: Rattus sp.
[9] = from C=CCCCCC[C@H](NC(=O)OC(C)(C)C)C(=O)N1C[C@H](O)C[C@H]1C(=O)N[C@]1(C(=O)OCC)C[C@H]1C=C; rcm bond; Hoveyda catalyst; DCE; 10.0 mM; 50.0 °C; 16.0 h
[10] = from 1R-{[1-(2S-tert-Butoxycarbonylamino-non-8-enoyl)-4R-hydroxy-pyrrolidine-2S-carbonyl]-amino}-2S-vinyl-cyclopropanecarboxylic acid ethyl ester; rcm bond; 15-membered ring; Hoveyda catalyst (0.25 equiv); DCE; 10.0 mM; 50.0 °C

T1 sequence (P27958 1027-1657): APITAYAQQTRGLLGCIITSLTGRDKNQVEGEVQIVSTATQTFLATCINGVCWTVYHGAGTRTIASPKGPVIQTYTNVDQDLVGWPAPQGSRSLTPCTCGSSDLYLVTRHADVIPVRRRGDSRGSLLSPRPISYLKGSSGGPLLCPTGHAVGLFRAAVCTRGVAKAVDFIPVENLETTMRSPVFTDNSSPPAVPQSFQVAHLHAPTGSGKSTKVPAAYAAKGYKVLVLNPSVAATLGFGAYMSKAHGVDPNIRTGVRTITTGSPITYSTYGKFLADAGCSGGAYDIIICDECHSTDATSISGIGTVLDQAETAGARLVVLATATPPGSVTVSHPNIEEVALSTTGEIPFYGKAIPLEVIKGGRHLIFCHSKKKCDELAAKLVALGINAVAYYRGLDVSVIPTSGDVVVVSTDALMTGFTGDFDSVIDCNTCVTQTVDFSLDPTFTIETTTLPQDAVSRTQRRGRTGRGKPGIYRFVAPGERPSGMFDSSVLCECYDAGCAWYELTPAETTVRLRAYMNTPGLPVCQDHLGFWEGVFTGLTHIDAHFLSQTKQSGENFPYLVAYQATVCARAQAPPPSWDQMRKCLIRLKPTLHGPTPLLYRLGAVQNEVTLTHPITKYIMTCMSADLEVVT
hERG channel, sequence (Q12809 whole entry, canonical isoform): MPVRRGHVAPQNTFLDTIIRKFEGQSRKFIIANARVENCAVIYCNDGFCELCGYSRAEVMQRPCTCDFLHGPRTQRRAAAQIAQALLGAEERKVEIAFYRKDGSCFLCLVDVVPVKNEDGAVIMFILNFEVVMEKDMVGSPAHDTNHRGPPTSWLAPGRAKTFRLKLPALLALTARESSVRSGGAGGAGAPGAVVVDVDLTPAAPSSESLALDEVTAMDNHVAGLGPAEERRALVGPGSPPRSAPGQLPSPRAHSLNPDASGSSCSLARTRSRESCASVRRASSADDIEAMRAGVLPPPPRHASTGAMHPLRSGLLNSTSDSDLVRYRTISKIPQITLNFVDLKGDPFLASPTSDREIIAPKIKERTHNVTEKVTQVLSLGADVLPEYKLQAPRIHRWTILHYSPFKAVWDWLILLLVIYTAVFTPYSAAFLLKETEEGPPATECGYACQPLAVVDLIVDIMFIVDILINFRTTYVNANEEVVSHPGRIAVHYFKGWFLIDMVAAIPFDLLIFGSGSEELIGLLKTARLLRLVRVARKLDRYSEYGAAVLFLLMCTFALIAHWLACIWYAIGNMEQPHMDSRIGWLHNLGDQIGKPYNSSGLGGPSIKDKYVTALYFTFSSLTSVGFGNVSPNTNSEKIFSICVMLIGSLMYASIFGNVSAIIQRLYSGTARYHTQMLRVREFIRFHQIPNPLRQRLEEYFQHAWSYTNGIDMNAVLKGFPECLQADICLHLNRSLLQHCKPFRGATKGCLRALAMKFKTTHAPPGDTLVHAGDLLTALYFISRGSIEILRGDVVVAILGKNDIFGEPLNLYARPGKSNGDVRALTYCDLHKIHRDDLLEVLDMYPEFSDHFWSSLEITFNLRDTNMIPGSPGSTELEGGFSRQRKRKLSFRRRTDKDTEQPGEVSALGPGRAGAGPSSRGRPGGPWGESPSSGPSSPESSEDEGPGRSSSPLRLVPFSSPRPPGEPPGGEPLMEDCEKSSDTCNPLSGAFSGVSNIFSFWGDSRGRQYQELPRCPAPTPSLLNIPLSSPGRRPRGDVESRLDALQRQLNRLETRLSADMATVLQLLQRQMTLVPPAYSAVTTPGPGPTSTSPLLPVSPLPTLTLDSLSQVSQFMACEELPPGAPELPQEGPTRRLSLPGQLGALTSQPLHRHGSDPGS

Row | Structure (SMILES) | stability in vitro in dog hepatocyte incubation assay [1] | EC50 [2] | inhibition of hERG channel activity (hERG channel) | inhibition of Cytochrome P450 isoforms (Cytochrome P450 isoforms) | stability in vitro in rat hepatocyte incubation assay [3] | stability in vitro in human hepatocyte incubation assay [4] | selectivity against a panel of other serine proteases [5] | EC50 ([6]; Hepatitis C virus) | IC50 (NS3-NS4 protease) | further results
1 | CC(C)(C)OC(=O)N[C@H]1CCCCCCC[C@@H]2C[C@@]2(C(=O)NS(=O)(=O)C2CC2)NC(=O)[C@@H]2C[C@@H](OC(=O)N3Cc4ccccc4C3)CN2C1=O [AR333833] | exhibited stability | ~2 nM | no significant inhibition | no significant inhibition | exhibited stability | exhibited stability | high degree of selectivity |  |  | 
2 | CC(C)(C)OC(=O)N[C@H]1CCCCC/C=C\[C@@H]2C[C@@]2(C(=O)NS(=O)(=O)Nc2ccc(Cl)cc2)NC(=O)[C@@H]2C[C@@H](OC(=O)N3Cc4ccccc4C3)CN2C1=O [Compound 128, (1S,4R,6S,14S,18R)-1,3-Dihydro-isoindole-2-carboxylic acid 14-tert-butoxycarbonylamino-4-(4-chlorophenylaminosulfonyl-aminocarbonyl)-2,15-dioxo-3,16-diaza-tricyclo[14.3.0.0^4,6]nonadec-7-en-18-yl ester] |  |  |  |  |  |  |  | < 100 nM | < 100 nM | 
3 | CC(C)(C)OC(=O)N[C@H]1CCCCC/C=C\[C@@H]2C[C@@]2(C(=O)NS(=O)(=O)N2CCCC2)NC(=O)[C@@H]2C[C@@H](OC(=O)N3Cc4ccc(Cl)cc4C3)CN2C1=O [Compound 115, (1S,4R,6S,14S,18R)-5-Chloro-1,3-Dihydro-isoindole-2-carboxylic acid 14-tert-butoxycarbonylamino-4-(pyrrolidino-sulfonyl-aminocarbonyl)-2,15-dioxo-3,16-diaza-tricyclo[14.3.0.0^4,6]nonadec-7-en-18-yl ester] |  |  |  |  |  |  |  | < 100 nM | < 100 nM | 
4 | CC(C)(C)OC(=O)N[C@H]1CCCCC/C=C\[C@@H]2C[C@@]2(C(=O)NS(=O)(=O)NC2CC2)NC(=O)[C@@H]2C[C@@H](OC(=O)N3Cc4ccc(Cl)cc4C3)CN2C1=O [Compound 114] |  |  |  |  |  |  |  | < 100 nM | < 100 nM | 
5 | CC(C)(C)OC(=O)N[C@H]1CCCCC/C=C\[C@@H]2C[C@@]2(C(=O)NS(=O)(=O)N2CCC2)NC(=O)[C@@H]2C[C@@H](OC(=O)N3Cc4ccccc4C3)CN2C1=O [Compound 117, (1S,4R,6S,14S,18R)-1,3-Dihydro-isoindole-2-carboxylic acid 14-tert-butoxycarbonylamino-4-(azetidino-sulfonyl-aminocarbonyl)-2,15-dioxo-3,16-diaza-tricyclo[14.3.0.0^4,6]nonadec-7-en-18-yl ester] |  |  |  |  |  |  |  | < 100 nM | < 100 nM | 
6 | CN(C)S(=O)(=O)NC(=O)[C@@]12C[C@H]1C=CCCCCC[C@H](NC(=O)OC(C)(C)C)C(=O)N1C[C@H](OC(=O)N3Cc4ccccc4C3)C[C@H]1C(=O)N2 [Compound 101, (1S,4R,6S,14S,18R)-1,3-Dihydro-isoindole-2-carboxylic acid 14-tert-butoxycarbonylamino-4-(N,N-dimethylsulfonyl-aminocarbonyl)-2,15-dioxo-3,16-diaza-tricyclo[14.3.0.0^4,6]nonadec-7-en-18-yl ester] |  |  |  |  |  |  |  |  | < 100 nM | EC50 [6]: < 100 nM
7 | CC(C)(C)OC(=O)N[C@H]1CCCCC/C=C\[C@@H]2C[C@@]2(C(=O)NS(=O)(=O)C2CC2)NC(=O)[C@@H]2C[C@@H](OC(=O)N3Cc4ccccc4C3)CN2C1=O [AR294381] | exhibited stability | ~2 nM | no significant inhibition | no significant inhibition | exhibited stability | exhibited stability | high degree of selectivity |  |  | 
8 | CC(C)N(C(C)C)S(=O)(=O)NC(=O)[C@@]12C[C@H]1/C=C\CCCCC[C@H](NC(=O)OC(C)(C)C)C(=O)N1C[C@H](OC(=O)N3Cc4ccccc4C3)C[C@H]1C(=O)N2 [Compound 126, (1S,4R,6S,14S,18R)-1,3-Dihydro-isoindole-2-carboxylic acid 14-tert-butoxycarbonylamino-4-(N,N-diisopropylaminosulfonyl-aminocarbonyl)-2,15-dioxo-3,16-diaza-tricyclo[14.3.0.0^4,6]nonadec-7-en-18-yl ester] |  |  |  |  |  |  |  | < 100 nM | < 100 nM | 
9 | CC(C)(C)OC(=O)N[C@H]1CCCCC/C=C\[C@@H]2C[C@@]2(C(=O)NS(=O)(=O)C2CC2)NC(=O)[C@@H]2C[C@@H](OC(=O)N3CCc4ccccc4C3)CN2C1=O [AR261408] | exhibited stability | ~2 nM | no significant inhibition | no significant inhibition | exhibited stability | exhibited stability | high degree of selectivity |  |  | 
10 | CC(C)(C)OC(=O)N[C@H]1CCCCC/C=C\[C@@H]2C[C@@]2(C(=O)NS(=O)(=O)C2CC2)NC(=O)[C@@H]2C[C@@H](OC(=O)N3Cc4cccc(F)c4C3)CN2C1=O [AR334191] | exhibited stability | ~2 nM | no significant inhibition | no significant inhibition | exhibited stability | exhibited stability | high degree of selectivity |  |  | heart levels relative to liver concentrations in the same animals [7]: up to two orders of magnitude lower; plasma levels relative to liver concentrations in the same animals [7]: up to two orders of magnitude lower; safety margin above the presumptive efficacious dose (3 mg/kg) ([8]; 30 mg/kg BID for seven days vs 3 mg/kg): ≥ 10 fold; mortality, change in weight, abnormalities in clinical chemistries ([8]; 30 mg/kg orally BID for 7 days): no mortality, change in weight, or abnormalities in clinical chemistries were observed; toxicity ([8]; dosed for seven days at 30 mg/kg BID): did not display toxicity
11 | CN1CCC(N(C2CC2)S(=O)(=O)NC(=O)[C@@]23C[C@H]2/C=C\CCCCC[C@H](NC(=O)OC(C)(C)C)C(=O)N2C[C@H](OC(=O)N4Cc5ccccc5C4)C[C@H]2C(=O)N3)CC1 [Compound 124, (1S,4R,6S,14S,18R)-1,3-Dihydro-isoindole-2-carboxylic acid 14-tert-butoxycarbonylamino-4-(cyclopropyl(1-methylpiperidin-4-yl)aminosulfonyl-aminocarbonyl)-2,15-dioxo-3,16-diaza-tricyclo[14.3.0.0^4,6]nonadec-7-en-18-yl ester] |  |  |  |  |  |  |  | < 100 nM | < 1000 nM | 
12 | CC(C)(C)OC(=O)N[C@H]1CCCCC/C=C\[C@@H]2C[C@@]2(C(=O)NS(=O)(=O)NC2CCCC2)NC(=O)[C@@H]2C[C@@H](OC(=O)N3Cc4ccccc4C3)CN2C1=O [Compound 134, (1S,4R,6S,14S,18R)-1,3-Dihydro-isoindole-2-carboxylic acid 14-tert-butoxycarbonylamino-4-(cyclopentylaminosulfonyl-aminocarbonyl)-2,15-dioxo-3,16-diaza-tricyclo[14.3.0.0^4,6]nonadec-7-en-18-yl ester] |  |  |  |  |  |  |  | < 100 nM | < 100 nM | 
13 | CCOC(=O)[C@@]12C[C@H]1C=CCCCCC[C@H](NC(=O)OC(C)(C)C)C(=O)N1C[C@H](O)C[C@H]1C(=O)N2 |  |  |  |  |  |  |  |  |  | ring closure, yield of all isomers [9]: 26%; ring closure, isolated yield [10]: 52%
